From patent US10640463B2, “Chlorhexidine crystal forms and uses thereof in medicine” (Queen Mary University of London, priority 2016, dated 2020)

Legend:
L929 cells [1] = experiment: Cell proliferation assay (total DNA content, Hoechst 33258); assay type: cell-based, mouse
Description: To determine any increase in cell numbers over time following chlorhexidine spheres treatment, a cell proliferation assay was performed by analysing the total DNA content using a fluorimetric plate reader based assay (Hoechst dye, R. Rago analytical biochemistry, 1990, 191: 31-34). Briefly, the 96 well plates were collected at 24 and 48 hour time points, washed twice with PBS and stored at −20° C. The cells were thawed to room temperature and 100 μl distilled water was added to each well, incubated for another hour and refrozen to suspend DNA. After 24 hrs, cells were thawed again and 100 μl of the fluorochrome Hoechst 33258 (Sigma-Aldrich, UK) at the concentration 20 μg/ml in THE buffer (2M NaCl) was added to each well. The intensity of the fluorescence was then read at A 350 nm excitation and A 460 nm emissions.

[2] = Chlorhexidine release from HEMA-UDMA resin discs, with or without ultrasound; assay type: physicochemical
Description: HEMA-UDMA resin was prepared by mixing 64% urethane dimethacrylate (UDMA) (Esschem UK, Lot: 591-22) and 36% hydroxyethyl methacrylate (HEMA) (Aldrich, 128635, Lot: STBC7495V), 0.08% of N,N-dimethyl-P-toluidine (Acros Organics, Lot: A0207283001) and 0.05% dimethylamino ethyl methacrylate (Aldrich, 234907, Lot: BCBF8391V) were added. The mixture was then stirred for 15 min (800 rpm, VWR Stirrer, USA). Finally, camphorquinone (Aldrich, 12, 489-3, Lot: 2338141) was added at the proportion of 0.1%. The mixture was stirred for another 15 min (VWR Stirrer, USA), and then the viscous liquid resin was prepared. Freeze dried chlorhexidine chloride compounds produced in Example 2 (precipitated with 0.33 M CaCl2) were weighed and incorporated within the resin at a loading level of 5% by weight. To explore the effect of different morphology on the release kinetics, chlorhexidine compounds with spherical, needle and flake morphology (from Example 1, FIG. 1, panels (b) and (c)) were incorporated into the resin. Incorporation of the chlorhexidine compounds within the resin was carried out by rotating the mixture contained in a 1 ml tube for 15 s in a Rotomix (120V/60 Hz, 2850 rotations/min) (ESPE RotoMix, USA). Chlorhexidine diacetate was also incorporated in the prepared resin in the same way, with loading rates of 5%, 10% and 15% (weight %). The filled resin was then placed into a Teflon mould (10 mm in diameter ×2 mm thick) and cured through a Mylar film with a curing light (Bluedent LED pen, Bulgaria) (430-490 nm, 600 mW/sq·cm) for 30 s. Then the discs were next weighed on a microbalance (Salter Ander-180A weighing scale, UK), and chlorhexidine content in each disc was calculated.
(§1) For the release study, all sample resin discs (HEMA-UDMA) containing chlorhexidine chloride compounds or chlorhexidine diacetate powder prepared in Example 5 were kept in cuvettes containing 3 ml deionized water, and kept at room temperature. And at each time point, solutions were collected for UV absorption tests (Lambda 35, Perkin Elmer, USA) and replaced with fresh deionized water.
For the chlorhexidine chloride compound doped discs (Example 5) chlorhexidine content was fixed at 5%, and ultrasound was exerted. Four groups (five discs in each group) were repetitively treated with ultrasound for 0 s, 10 s, 20 s, 30 s, accordingly, by contacting the ultrasound probe (Piezon Master 400, Swiss, 60 Hz, 45VA) on the disc surface at time points of 1 h, 3 h, 5 h, 15 h, 25 h, 40 h, 65 h, 95 h, 140 h, 205 h. After that, no ultrasound was carried out for all the groups, but release was carried on until the 650 hour time point. The UDMA-HEMA discs containing needle and flake chlorhexidine compounds and chlorhexidine diacetate (FIG. 1, panels (b) and (c), and FIG. 3, panel (g)) were also tested (UV absorption tests) at the same time points (same sample numbers) but without ultrasound treatment. For the chlorhexidine diacetate powder doped discs chlorhexidine content of 5%, 10% and 15% were also analysed, and no ultrasound treatment was carried out.

L929 cells [3] = experiment: Cytotoxicity assay (MTT); settings: for relative cellular viability: 0.001% chlorhexidine spheres
Description: 0.5% chlorhexidine spheres stock solution was used to prepare fresh successive dilutions in sterile deionised water to obtain the final concentrations ranging from 0.0005 to 0.25%. For controls (untreated cultures), sterile deionised water was used. 25 μl of each treatment were added into respective wells to achieve final concentrations ranging from 0.00005-0.025%.
L929 cells, a mouse fibroblast-like cell line (ECACC 85011425) were cultured in Dulbecco's Modified Eagle's Medium (DMEM; Lonza, UK) supplemented with 10% fetal bovine serum (FBS) with 100 IU/mL penicillin, 100 μg/mL streptomycin and 2 mmol/L glutamine (all from Invitrogen, UK) in an humidified incubator with 10% CO2 and 95% air at 37° C.
Cell metabolic activity was evaluated by measuring the mitochondrial activity using a method commonly known as a methyl-tetrazolium (MTT) assay. MTT assay was carried out according to the protocols outlined in ISO 1 0993-5:2009 (Biological evaluation of medical devices—Part 5: Tests for in vitro cytotoxicity).
Trypsinisation was performed by routine methods and cell suspension was counted using a haemocytometer and seeded in 96-well microtiter plates at a concentration of 10,000 cells per well. The cells were then left overnight in the incubator to adhere to the wells. Following overnight incubation, medium was removed and cells were washed twice with PBS. The cells were then treated with different concentrations of chlorhexidine spheres (0.00005-0.025%) for 24 and 48 hours. Following treatment, culture medium containing chlorhexidine spheres was removed and 50 μL of 5 mg/mL tetrazolium salt MTT (Sigma-Aldrich, Gillingham, UK) was added to each well and incubated in 37 C for 4 h. Formazan crystals generated by mitochondrial enzyme activity were dissolved by 100 μl of isopropanol and the intensity of purple coloured reaction product quantified by measuring the absorbance spectra at 570 nm. A cell viability level below 70% of control (no treatment) was regarded as the toxic concentration according to the ISO protocol.

[4] = Chlorhexidine release from PMMA resin; assay type: physicochemical; settings: 5% loading, after 650 hours
Description: as §1
The PMMA resin system was also tested for the release kinetics of spherical chlorhexidine chloride compounds. Specifically, PMMA resin was prepared by mixing the Simplex Rapid Liquid and powder (Kemdent, Lot: 920 758) at a weight ratio of 1:2. The self-cure process took about 15 min, and after which the mixture was filled into a Teflon mould in the same way and pressed (Mestra, Mod.030350). To incorporate the spherical chlorhexidine chloride compounds, they were previously mixed with the Simplex Rapid powder (5% weight of mixture), and the liquid was added.

[5] = Chlorhexidine release from uncoated and polyelectrolyte-encapsulated particles (UV absorption); assay type: physicochemical; settings: H2O, water stored and agitated
Description: The content of chlorhexidine in the compound, made from 0.33M CaCl2 and 15 mg/ml chlorhexidine diacetate, was determined by UV-Vis absorption (Lambda 35, Perkin Elmer, USA). […] The chlorohexidine proportion in the spheres (0.33M CaCl2 group) was calculated to be 90%-99.9% when they were co-precipitated from 15 mg/ml chlorhexidine diacetate solution. […] However, after encapsulation polyelectrolyte flakes could be seen on the surface, with the original structure covered (FIG. 11, panel (b)). In order to measure chlorhexidine release over 400 mins, samples were water stored and agitated (Vortex-Genie 2, Germany) for the whole time period. […] There was a linear relationship between chlorhexidine release and time (r2=0.99) FIG. 11, panel (d)).

Cl.Cl.N=C(NCCCCCCNC(=N)NC(=N)Nc1ccc(Cl)cc1)NC(=N)Nc1ccc(Cl)cc1 [chlorhexidine spheres]
effect on L929 cell proliferation (in words) (L929 cells [1]; 0.00005% to 0.00025%, 24 and 48 hour treatment): induces proliferation | effect on L929 cell proliferation (in words) (L929 cells [1]; 0.0005%, 24 hour treatment): no proliferation | concentrations profoundly reducing cell proliferation (L929 cells [1]; L929 cells): > 0.0005% | concentrations significantly inhibiting proliferation (L929 cells [1]; L929 cells): ≥ 0.001% | chlorhexidine release ([2]; 5% loading, control group without ultrasound (0 s), by 205 hours): 1.2% | chlorhexidine released by weight ([2]; 5% loading, deionized water, room temperature, no ultrasound, within 65 hours): 0.76% | chlorhexidine release ([2]; 5% loading, ultrasound 10 s at each time point, by 205 hours): 4.6% | chlorhexidine release ([2]; 5% loading, ultrasound 20 s at each time point, by 205 hours): 10.1% | chlorhexidine release ([2]; 5% loading, ultrasound 30 s at each time point, by 205 hours): 14.9% | chlorhexidine release ([2]; no ultrasound, after 650 hours): ~2.7% | cellular viability (L929 cells [3]; 0.00005% to 0.00025%, both 24 and 48 hours): approximately 90% | cellular viability (L929 cells [3]; 0.0005%, 24 hours): > 80% | cellular viability (L929 cells [3]; 0.0005%, 48 hours): below 70% | relative cellular viability (L929 cells [3]; 24 hours): approximately 50% | relative cellular viability (L929 cells [3]; 48 hours): 20% | concentrations demonstrating cytotoxicity (L929 cells [3]; L929 cells, viability below 70% of control regarded as toxic): above 0.0005% | chlorhexidine released [4]: 8% | time to dissolution [5]: ≤ 1 h
